# Activity calls are given as the source filed them. The calls are words filed in the database; no cut-off is given here.
# Legend:
# [1] = Toxicity in mouse assessed as body weight change at 100 to 400 mg/kg, ip measured for 21 days; format: organism-based; conditions: in vivo, 504 h, dose 100-400 mg/kg, time 21 day
# NCI-H460 [2] = assay: Induction of cell cycle arrest in human NCI-H460 cells assessed as accumulation of cells at G1 phase at 2 uM incubated for 48 hrs by PI staining based flow cytometric analysis (reference value: 56.7 %); format: functional
# NCI-H460 [3] = assay: Antitumor activity against human NCI-H460 cells xenografted in female BALB/c nude mouse assessed as decrease in Ki67-positive cells at 50 mg/kg, ip administered for 21 consecutive days by immunohistochemical analysis; format: functional, organism-based; conditions: time 21.0 day
# NCI-H460 [4] = assay: Induction of autophagy in human NCI-H460 cells assessed as increase in acidic vesicles incubated for 48 hrs by MDC staining and LC3B immunofluorescence analysis; format: functional, cell-based; conditions: dose 2-8 µM
# NCI-H460 [5] = assay: Induction of cell cycle arrest in human NCI-H460 cells assessed as accumulation of cells at G1 phase at 8 uM incubated for 48 hrs by PI staining based flow cytometric analysis (reference value: 56.7 %); format: functional
# NCI-H460 [6] = assay: Induction of apoptosis in human NCI-H460 cells assessed as early apoptotic cells at 2 uM incubated for 48 hrs by Annexin V-PE/7-AAD staining based flow cytometric analysis (reference value: 3.58 %); format: functional
# NCI-H460 [7] = assay: Induction of apoptosis in human NCI-H460 cells assessed as necrotic cells at 4 uM incubated for 48 hrs by Annexin V-PE/7-AAD staining based flow cytometric analysis (reference value: 0.79 %); format: functional
# NCI-H460 [8] = assay: Induction of apoptosis in human NCI-H460 cells assessed as early apoptotic cells at 4 uM incubated for 48 hrs by Annexin V-PE/7-AAD staining based flow cytometric analysis (reference value: 3.58 %); format: functional
# NCI-H460 [9] = assay: Antiproliferative activity against human NCI-H460 cells assessed as decrease in p-Rb expression at 2 to 8 uM treated for 24 hrs by immunofluorescence analysis; format: functional, cell-based; conditions: dose 2-8 µM
# [10] = Half life in male Sprague-Dawley rat at 5 mg/kg, iv measured up to 24 hrs by LC-MS/MS analysis; format: ADME, organism-based; conditions: in vivo
# NCI-H460 [11] = assay: Induction of autophagy in human NCI-H460 cells assessed as increase in LC3-II expression incubated for 48 hrs by Western blotting analysis; format: functional, cell-based; conditions: dose 2-8 µM
# NCI-H460 [12] = assay: Induction of apoptosis in human NCI-H460 cells assessed as necrotic cells at 2 uM incubated for 48 hrs by Annexin V-PE/7-AAD staining based flow cytometric analysis (reference value: 0.79 %); format: functional
# NCI-H460 [13] = assay: Induction of cell cycle arrest in human NCI-H460 cells assessed as accumulation of cells at G2 phase at 8 uM incubated for 48 hrs by PI staining based flow cytometric analysis (reference value: 11.0 %); format: functional
# MCF-10A = assay: Cytotoxicity against human MCF-10A cells assessed as cell viability at 5 to 10 uM incubated for 48 hrs by MTT assay; format: toxicity, cell-based; conditions: dose 5-10 µM
# NCI-H460 [14] = assay: Induction of cell cycle arrest in human NCI-H460 cells assessed as accumulation of cells at G2 phase at 4 uM incubated for 48 hrs by PI staining based flow cytometric analysis (reference value: 11.0 %); format: functional
# NCI-H460 [15] = assay: Antiproliferative activity against human NCI-H460 cells assessed as decrease in c-myc expression at 2 to 8 uM treated for 24 hrs by immunofluorescence analysis; format: functional, cell-based; conditions: dose 2-8 µM
# [16] = AUC (0 to infinity) in male Sprague-Dawley rat at 5 mg/kg, iv measured up to 24 hrs by LC-MS/MS analysis; format: ADME, organism-based; conditions: in vivo
# NCI-H460 [17] = assay: Induction of autophagy in human NCI-H460 cells assessed as increase in vacuole formation incubated for 12 hrs by microscopic analysis; format: functional, cell-based
# [18] = Toxicity in mouse assessed as histological change in kidney at 400 mg/kg, ip measured for 21 days by H and E staining based analysis; format: organism-based; conditions: in vivo, 504 h, time 21 day
# NCI-H460 [19] = assay: Antitumor activity against human NCI-H460 cells xenografted in female BALB/c nude mouse assessed as reduction in P-RB expression at 50 mg/kg, ip administered for 21 consecutive days by immunohistochemical analysis; format: functional, organism-based; conditions: time 21.0 day
# [20] = molecular target: Cyclin-dependent kinase 4 (Homo sapiens, UniProt P11802); assay: Inhibition of CDK4 (unknown origin)
# NCI-H460 [21] = assay: Induction of cell cycle arrest in human NCI-H460 cells assessed as accumulation of cells at S phase at 8 uM incubated for 48 hrs by PI staining based flow cytometric analysis (reference value: 33.3 %); format: functional
# NCI-H460 [22] = assay: Induction of cell cycle arrest in human NCI-H460 cells assessed as accumulation of cells at G2 phase at 2 uM incubated for 48 hrs by PI staining based flow cytometric analysis (reference value: 11.0 %); format: functional
# NCI-H460 [23] = assay: Induction of cell cycle arrest in human NCI-H460 cells assessed as accumulation of cells at G1 phase at 4 uM incubated for 48 hrs by PI staining based flow cytometric analysis (reference value: 56.7 %); format: functional
# NCI-H1299 = assay: cells; conditions: Homo sapiens, NCI-H1299, 48 h
# Description: Antitumor activity against human NCI-H1299 cells assessed as inhibition of cell viability incubated for 48 hrs by MTT assay
# NCI-H460 [24] = assay: Antiproliferative activity against human NCI-H460 cells assessed as reduction in EdU positive cells incubated for 24 hrs by EdU incorporation assay; format: functional, cell-based; conditions: dose 2-8 µM
# NCI-H460 [25] = assay: Induction of autophagy in human NCI-H460 cells assessed as increase in autophagosomes incubated for 48 hrs by MDC staining and LC3B immunofluorescence analysis; format: functional, cell-based; conditions: dose 2-8 µM
# NCI-H460 [26] = assay: Antitumor activity against human NCI-H460 cells xenografted in female BALB/c nude mouse assessed as tumor growth inhibition at 50 mg/kg, ip administered for 21 consecutive days relative to control; format: functional; conditions: NCI-H460, 504 h, time 21 day, read-out: TGI
# Chain of Cyclin-dependent kinase 4 (P11802 whole entry): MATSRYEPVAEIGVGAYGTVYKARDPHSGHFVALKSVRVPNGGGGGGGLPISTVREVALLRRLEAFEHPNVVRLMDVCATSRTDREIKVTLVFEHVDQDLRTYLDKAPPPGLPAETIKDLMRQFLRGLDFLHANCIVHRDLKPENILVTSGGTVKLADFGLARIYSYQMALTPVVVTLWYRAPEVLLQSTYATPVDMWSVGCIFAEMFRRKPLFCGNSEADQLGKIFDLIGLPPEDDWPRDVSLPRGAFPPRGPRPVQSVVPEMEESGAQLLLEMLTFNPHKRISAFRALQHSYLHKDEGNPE
structure (smiles),measurement,setting,value
COc1cc(-c2nc3ccc(F)cc3c(=O)[nH]2)cc(OC)c1OCC(=O)N1CCN(c2ccc(Nc3ncc4cc(C(=O)N(C)C)n(C5CCCC5)c4n3)nc2)CC1,Activity,[1],Non-toxic
same,Activity,NCI-H460 [2],60.6%
same,Activity,NCI-H460 [3],Active
same,Activity,NCI-H460 [4],Dose-dependent-effect
same,Activity,NCI-H460 [5],80.8%
same,Activity,NCI-H460 [6],9.06%
same,Activity,NCI-H460 [7],1.06%
same,Activity,NCI-H460 [8],8.81%
same,Activity,NCI-H460 [9],Active
same,half-life,[10],7.42 h
same,Activity,NCI-H460 [11],Dose-dependent-effect
same,Activity,NCI-H460 [12],1.6%
same,Activity,NCI-H460 [13],3.41%
same,Activity,MCF-10A,Non-toxic
same,Activity,NCI-H460 [14],7.15%
same,Activity,NCI-H460 [15],Active
same,AUC(0-inf),[16],3860 ng·h/mL
same,Activity,NCI-H460 [17],Active
same,Activity,[18],Non-toxic
same,Activity,NCI-H460 [19],Active
same,IC50,[20],85.1 nM
same,Activity,NCI-H460 [21],15.8%
same,Activity,NCI-H460 [22],11.4%
same,Activity,NCI-H460 [23],71.1%
same,IC50,NCI-H1299,4010 nM
same,Activity,NCI-H460 [24],Dose-dependent-effect
same,Activity,NCI-H460 [25],Dose-dependent-effect
same,inhibition in vivo at 50 mg/kg,NCI-H460 [26],85.3%

# From ChEMBL document CHEMBL6182851, “Discovery of dual CDK4/6 and BRD4 inhibitor as apoptosis and autophagy inducers against NSCLC in vitro and in vivo” (Eur J Med Chem, 2025)
